Data taken from article PMC9804781, “Identification of a Novel Pseudo‐Natural Product Type IV IDO1 Inhibitor Chemotype” (Angewandte Chemie (International Ed. in English), 2022).

Key:
[1] = target: T1, Recombinant human His-IDO1 (rhIDO1) (Homo sapiens, UniProt P14902); assay: in vitro Kyn assay (IDO1 enzymatic assay); format: biochemical
T1 construct: His; made in house; host or cells: E. coli
Method: To detect direct inhibition, 1 µM rhIDO1 was incubated with compounds for 40 min at 37°C in 50 mM potassium phosphate buffer (16.9 mM K2HPO4, 33.1 mM, KH2PO4, pH 6.5).
Subsequently, 10 mM ascorbic acid, 10 μM methylene blue, 2 mM L-Trp and 100 μg/mL catalase were added and samples were incubated for 60 min at room temperature or 37°C. Trichloroacetic acid was added to a final concentration of 7% (v/v) and samples were incubated for 30 min at 70°C. Afterwards, an equal volume of freshly prepared 2% (w/v) p-DMAB in glacial acetic acid (Ehrlich reagent) was added prior to measuring absorbance at 492 nm and 650 nm on the Spark® Multimode Microplate Reader (Tecan, AT). To determine the Kyn levels, the absorbance of the Kyn-p-DMAB adduct A492 was subtracted by the background absorbance A650 and normalized to the DMSO control. Data analysis was performed using a non-linear regression curve fit and GraphPad Prism 9.0 (GraphPad Software, Inc, US) to generate dose-response curves and obtain

[2] = target: T2, His-tagged IDO2 (Homo sapiens, UniProt Q6ZQW0); assay: IDO2 Activity Assay; format: biochemical; conditions: 50 µM; 90 min + 120 min at 30 °C
T2 construct: His; purchased BPS Bioscience 72035 (kit)
T2 sequence (Q6ZQW0 1-407): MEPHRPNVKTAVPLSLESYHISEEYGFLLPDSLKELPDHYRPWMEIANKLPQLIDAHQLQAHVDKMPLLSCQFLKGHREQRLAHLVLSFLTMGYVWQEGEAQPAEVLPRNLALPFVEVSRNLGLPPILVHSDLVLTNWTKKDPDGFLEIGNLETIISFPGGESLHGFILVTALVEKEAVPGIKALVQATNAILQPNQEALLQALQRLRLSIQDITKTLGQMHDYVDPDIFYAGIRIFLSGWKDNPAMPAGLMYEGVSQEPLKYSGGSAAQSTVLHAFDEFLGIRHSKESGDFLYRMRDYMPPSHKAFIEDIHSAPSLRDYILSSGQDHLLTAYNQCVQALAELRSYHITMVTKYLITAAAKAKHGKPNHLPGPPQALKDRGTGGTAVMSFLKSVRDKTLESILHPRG
Method: Inhibition of indoleamine 2,3-dioxygenase 2 (IDO2) was tested using the Universal IDO1/IDO2/TDO Inhibitor Screening Assay Kit (cat# 72035, BPS Bioscience, US). 10 µg His-tagged IDO2 in IDO2 Assay Buffer was incubated with Complete IDO2 Reaction Solution (1% (v/v) component 2 in component 1) and 50 µM Test Inhibitor (0.5% (v/v) DMSO) for 90 min at 30°C with slow shaking in the dark prior to initiation of the reaction by addition of 20% (v/v) IDO2 Substrate. Samples were incubated for 120 min at 30°C with slow shaking in the dark. Afterwards, absorbance at 321 nm was recorded on the Spark® Multimode Microplate Reader (Tecan, AT), all values were subtracted by the background and normalized to the DMSO control.

[3] = test system: L-Trp uptake in BxPC-3 cells; assay: Trp uptake assay in BxPC-3 cells (HPLC-MS/MS); format: cell-based; conditions: BxPC-3 starved for L-Trp 72 h, ±IFN-γ; 5 mM L-Leu, 1 mM 1-MT, 5 µM compound
Method: GraphPad Prism 9.0 (GraphPad Software, Inc, US) to generate dose-response curves and obtain […]
IDO1 promoter reporter gene assay
HEK293T cells (25,000 cells/well) were reverse-transfected with pXPG-IDO1[16] (4 µg/96-well plate, kindly provided by Gina M. Doody, Leeds, UK) and pRL-TK (300 ng/96-well plate, Promega, US) using Lipofectamine™ 2000 (Invitrogen, USA) pri or to incubation for 24 h. Afterwards, cells were treated with 50 ng/mL IFN-γ and the compounds for 48 h. Luminescence generated by the Fluc reporter and the control reporter Rluc was measured using the Dual-Glo ® Luciferase Assay System (Promega, US) on the Spark® Multimode Microplate Reader (Tecan, AT). To determine the IDO1 promoter activity, Fluc signals were divided by Rluc signals and normalized to the values of the DMSO control. Data analysis was performed using a non-linear regression curve fit and […]
BxPC-3 cells (30,000 cells/well) were seeded in 96-well plates in Trp-free RPMI 1640 medium and incubated for 48 h prior addition of 50 ng/mL IFN-γ. Trp starvation was continued for another 24 h. Afterwards, medium was exchanged for Trp-free medium containing the control inhibitors 5 mM L-Leu (inhibitor of system-L amino acid transporters (LAT)), 1 mM 1-methyl-L-tryptophan (inhibitor of tryptophanyl-tRNA synthetase (TrpRS)) and compounds and cells were incubated for 30 min. Subsequently, 50 µM L-Trp was added and samples were incubated for another 30 min.
The supernatant was transferred to a new plate, trichloroacetic acid was added to a final concentration of 7% (v/v) and plates were incubated for 15 min at room temperature. Samples were centrifuged for 10 min at 1800 x g and L-Trp was quantified by HPLC-MS/MS using the LTQ Velos Pro and Dionex HPLC (Thermo Fisher Scientific, US). Data analysis was performed with Xcalibur™ (Thermo Fisher Scientific, US) and repres ented using GraphPad Prism 9.0 (GraphPad […]
RNA purification and RT-qPCR
HeLa cells (250,000 cells/well) were seeded in 6-well plates and incubated for 24 h prior addition of 50 ng/mL IFN-γ and compounds. […]

T1 sequence (P14902 whole entry): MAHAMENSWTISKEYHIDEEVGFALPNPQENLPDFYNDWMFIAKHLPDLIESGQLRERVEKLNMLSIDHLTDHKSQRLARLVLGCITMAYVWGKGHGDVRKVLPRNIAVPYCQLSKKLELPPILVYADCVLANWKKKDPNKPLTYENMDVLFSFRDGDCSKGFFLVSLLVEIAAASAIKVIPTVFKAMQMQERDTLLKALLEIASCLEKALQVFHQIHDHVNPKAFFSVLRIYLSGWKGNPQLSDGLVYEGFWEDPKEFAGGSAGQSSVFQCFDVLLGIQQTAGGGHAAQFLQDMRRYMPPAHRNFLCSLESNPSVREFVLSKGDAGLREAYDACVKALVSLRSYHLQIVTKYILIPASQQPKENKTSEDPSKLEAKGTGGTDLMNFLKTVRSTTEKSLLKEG

Compound: CCOC(=O)C1=CC[C@](C(=O)OC)(c2cc3ccccc3n2C)N(S(=O)(=O)c2ccc(C)cc2)[C@@H]1C(=O)OC(C)(C)C [Compound 3d]
- IDO1 enzymatic assay activity at 25 °C ([1]; 25 °C): inactive
- IDO1 activity after pre-incubation at 37 °C ([1]; holo-IDO1, 40 min at 37 °C): decreased IDO1 activity
- inhibition of IDO2 (result in words) [2]: did not inhibit
- uptake (import) of L-Trp [3]: does not interfere
